Results: article PMC13168289, “Potent acridone antimalarial against all three life stages of Plasmodium” (Nature Communications, 2026)
“And” between values parts separate entries of the source, which are not always exact repeats. Equal entries are not always repeated. Where two headings read alike, the source gives them in different places.

How the values were obtained:
[1] = host hepatocyte viability in the P. cynomolgi assay; assay type: cell-based, rhesus; conditions: rhesus monkey; radical cure mode; read-out: cytotoxicity CC50
Procedure: The liver-stage P. cynomolgi assay was designed to identify anti-hypnozoite drugs utilizing a 384-well in vitro culture system[31],[37]. Briefly, cryopreserved primary simian hepatocytes (donor lots XGB, OQB, and QHO: BioIVT, Inc.) were seeded in collagen-coated 384-well plates and infected with P. cynomolgi bastianellii (B strain) sporozoites dissected from infected Anopheles dirus mosquitoes. Test compounds were solubilized in 100% DMSO and serially diluted 2-fold to generate up to a 12-point dose-response curve, maintaining a final DMSO concentration of 0.1% across all wells. Two distinct treatment modes were evaluated. For the prophylactic assay, to assess the prevention of infection, compound exposure began 1-hour post-infection with daily media changes on Days 1 and 2. For the radical cure assay, to assess activity against established liver forms, drugs were administered daily from Day 4 through Day 7 post-infection. […] For readout on Day 8, plates were fixed and stained via immunofluorescence to visualize parasite forms (hypnozoites and schizonts) and hepatocyte nuclei, and images were acquired using an Operetta CLS high-content imaging system (PerkinElmer). Host hepatocyte viability was measured in parallel to determine compound toxicity. Parasite forms were automatically quantified using Harmony 4.9 software, and percent inhibition and toxicity were calculated relative to in-plate DMSO vehicle controls. IC50 and CC50 (half-maximal cytotoxic concentrations) were determined by fitting dose-response data to a four-parameter logistic (variable slope) model using a custom Python script incorporating a grid search algorithm.

[2] = cited from earlier work
[3] = 7-day repeat dose toxicology study; assay type: in vivo, Sprague Dawley rats; conditions: 25, 100, 400 mg/kg daily oral for 7 days
Procedure: (§1) In vivo toxicology and TK studies in rats were performed at SRI International, using the well-established methods[83]–[85]. Rats were housed in microisolator cages with hardwood chip bedding (Sani-Chips; Envigo Teklad) and maintained on a 12 h light/dark cycle. Environmental conditions were controlled at 20–26 °C (68–79 °F) with 30–70% relative humidity. […] Male and female Sprague Dawley outbred rats were randomly assigned to treatment and control groups using a simple randomization procedure to ensure a balanced distribution of baseline weights across all cohorts. […] For TK studies, blood was collected from animals at 6 time points post dose on Day 1 (0.5, 1, 2, 4, 8, and 24 h) and on Day 7 (0.5, 2, 8, 24, 48, and 96 h). Drug levels were determined in collected plasma samples using bioanalytical method developed at SRI. The plasma drug level data were analyzed using Phoenix WinNonlin (version 8.3) software to perform noncompartmental data analysis.

[4] = test system: P. falciparum NF54 oocyst development in mosquitoes; assay: standard membrane feeding assay (SMFA); assay type: in vivo, P. falciparum in Anopheles stephensi; conditions: drug in blood meal
Procedure: The SMFA assay was performed using P. falciparum NF54 gametocytes produced in vitro[35]. P. falciparum NF54 gametocytes were grown in human blood cultured in RPMI 1640 GlutaMax medium (Gibco) supplemented with 25 mM HEPES, hypoxanthine, and human serum. De-identified human blood and serum were obtained from the Australian Red Cross Blood Service. Mature (stage V) gametocytes were quantified in Giemsa-stained blood smears. Immediately prior to infection, a feeding mixture comprising 45% human serum and 55% human blood containing 0.15% stage V gametocytes and the desired concentration of drug or vehicle control, was prepared and maintained at 37 °C. Adult female Anopheles stephensi (MR4) mosquitoes reared under the standard insectary conditions[79] were placed in mesh-topped cups and allowed to feed on the gametocyte mixtures in prewarmed glass feeders wrapped with parafilm. […] Mosquito midguts were dissected 7 days after infection, stained in 0.2% mercurochrome, and oocysts were counted using a light microscope.

[5] = test system: fresh P. falciparum isolates; assay: Ex vivo 72-h growth inhibition assay with SYBR Green detection; assay type: cell-based, Plasmodium falciparum
Procedure: Isolates were collected from patients with uncomplicated falciparum malaria in Bobo-Dioulasso, Burkina Faso and Tororo, Uganda. For parasite culture, parasitemia was identified with Giemsa-stained thin films using a light microscope. […] Isolates were stored at 4 °C and assayed within 24 h of collection. […] Study compounds were dissolved in DMSO as 10 mM stocks and stored at -20 °C. Drugs were serially diluted, including drug-free and parasite-free control wells, with concentrations optimized to capture full dose-response curves. Cultures were diluted with uninfected O^+ erythrocytes to achieve 0.2% parasitemia and 2% hematocrit. After 72 h, wells were resuspended, and culture from each well was transferred to 96-well plates containing SYBR Green lysis buffer and mixed. Plates were incubated for 1 h in the dark at room temperature, and fluorescence was measured with a plate reader (485 nm excitation and 530 nm emission).

blood-stage P. yoelii = assay: 4-day suppression murine model, oral; assay type: in vivo, P. yoelii in CF1 mice
Source text: Animals were housed at the VAPORHCS in Thoren Maxi-Miser microisolator cages (78 sq. in. floor space) with a maximum density of five females or four males per cage. Cages were maintained on a 12-h light/dark cycle and provided with autoclaved nesting materials (nestlets) for environmental enrichment. All mice had ad libitum access to food and water. Four- to five-week-old female and male outbred CF1 mice (Charles River Laboratories, Raleigh, NC, USA) were randomly assigned to treatment and control groups using a simple randomization procedure (e.g., computer-generated random numbers) to ensure balanced distribution of baseline body weights and starting parasitemia levels across all cohorts. Groups of four mice (n = 4, mean body weight of each group was ~30 g) were infected intravenously with 3.5 × 10^4 P. yoelii (Kenya strain, MRA-428) from a donor animal. Drug administration commenced the day after the animals were inoculated (Day 1). The test drug or the drug combination was dissolved in PEG-400 and administered by oral gavage once daily for 4 successive days in the 4-day suppression model, but only once on Day 1 in the single-dose cure model. Blood was collected via the tail vein with the aid of a syringe needle on Day 5 and then at weekly intervals through Day 28. Blood films were Giemsa-stained and examined microscopically to determine the level of parasitemia. All mice were observed daily to assess clinical signs. Animals with observable parasitemia following the experiments were euthanized; animals cleared of parasitemia from their bloodstream were observed daily with assessment of parasitemia performed weekly until Day 28, at which point, the animal(s) were scored as cured of the infection and then humanely euthanized. All treated mice with a negative smear on Day 28 were considered cured (100% protection). […]

[6] = maximum tolerated dose (MTD) study, single oral dose; assay type: in vivo, Sprague Dawley rats; conditions: oral gavage, male and female rats
Procedure: as §1

[7] = as stated in response to reviewers

SMILES | CC50 at 4 days [1] [µM] | T1/2 ([2]; healthy mice, ref PMID: 23292347) | t1/2 ([2]; mice plasma) | tolerability [3] | concentration that eliminated oocyst formation [4] | IC50 ([5]; Burkina Faso isolates, n = 78, read-out: IC50 range) [nM] | IC50 ([5]; Burkina Faso isolates, n = 78, read-out: median IC50) [nM] | IC50 ([5]; Uganda isolates, n = 81, read-out: IC50 range) [nM] | IC50 ([5]; Uganda isolates, n = 81, read-out: median IC50) [nM] | ED50 (blood-stage P. yoelii; [7]) [mg/kg/day] | ED90 (blood-stage P. yoelii; [7]) [mg/kg/day] | ED50 (blood-stage P. yoelii; female mice, oral) [mg/kg/day] | ED90 (blood-stage P. yoelii; female mice, oral) [mg/kg/day] | curative dose (blood-stage P. yoelii; four consecutive days, oral) [mg/kg/day] | ED50 (blood-stage P. yoelii; male mice, oral) [mg/kg/day] | ED90 (blood-stage P. yoelii; male mice, oral) [mg/kg/day] | single dose MTD [6]
O=C1C(O)=C([C@H]2CC[C@H](c3ccc(Cl)cc3)CC2)C(=O)c2ccccc21 [ATV, atovaquone] | 3.96 | about 13 h | ~ 13 h |  |  |  |  |  |  |  |  |  |  |  |  |  | 
O=c1c2ccc(Oc3ccc(OC(F)(F)F)cc3)cc2[nH]c2cc(Cl)cc(F)c12 [T111] |  |  |  | well tolerated, albeit with minor clinical signs | 4.0 ng/mL and 9.5 nM | 0.0013 to 0.49 | 0.062 | 0.0038 to 0.66 | 0.049 | 0.27 | 0.39 | 0.35 | 0.50 | 10 | 0.33 | 0.46 | greater than 400 mg/kg
